According to patent publication US20250051338A1, “TYK2 DEGRADERS AND USES THEREOF” (Kymera Therapeutics, Inc., priority 2021, published 2025):

Key:
Assay type in all cases: cell-based
TYK2 [1] = molecular target: T1, TYK2 (Homo sapiens, UniProt P29597); assay: TYK2 degradation MSD assay in human PBMC cells; design: endogenous in cells; host or cells: human PBMC; conditions: 4 to 24 hours incubation, read-out: TYK2 MSD DC50 rating in human PBMC
Outline: (§1)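 DC50 values reflect dose-dependent decrease of TYK2 protein, read by MSD after cells were exposed to compound (top 1 to 10 μM, 1:3, 9 doses) for 4 to 24 hours at 37° C.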

TYK2 [2] = molecular target: T1, TYK2; assay: TYK2 degradation MSD assay in EBV-B cells; design: endogenous in cells; host or cells: EBV-B cells; conditions: 4 to 24 hours incubation, read-out: TYK2 MSD DC50 rating in EBV-B
Outline: as §1

TYK2 [3] = molecular target: T1, TYK2; assay: TYK2 degradation MSD assay in OCI-LY10 cells; design: endogenous in cells; host or cells: EBV-B cells; conditions: 4 to 24 hours incubation, read-out: TYK2 MSD DC50 rating in OCI-LY10
Outline: as §1

T1 sequence (P29597 whole entry): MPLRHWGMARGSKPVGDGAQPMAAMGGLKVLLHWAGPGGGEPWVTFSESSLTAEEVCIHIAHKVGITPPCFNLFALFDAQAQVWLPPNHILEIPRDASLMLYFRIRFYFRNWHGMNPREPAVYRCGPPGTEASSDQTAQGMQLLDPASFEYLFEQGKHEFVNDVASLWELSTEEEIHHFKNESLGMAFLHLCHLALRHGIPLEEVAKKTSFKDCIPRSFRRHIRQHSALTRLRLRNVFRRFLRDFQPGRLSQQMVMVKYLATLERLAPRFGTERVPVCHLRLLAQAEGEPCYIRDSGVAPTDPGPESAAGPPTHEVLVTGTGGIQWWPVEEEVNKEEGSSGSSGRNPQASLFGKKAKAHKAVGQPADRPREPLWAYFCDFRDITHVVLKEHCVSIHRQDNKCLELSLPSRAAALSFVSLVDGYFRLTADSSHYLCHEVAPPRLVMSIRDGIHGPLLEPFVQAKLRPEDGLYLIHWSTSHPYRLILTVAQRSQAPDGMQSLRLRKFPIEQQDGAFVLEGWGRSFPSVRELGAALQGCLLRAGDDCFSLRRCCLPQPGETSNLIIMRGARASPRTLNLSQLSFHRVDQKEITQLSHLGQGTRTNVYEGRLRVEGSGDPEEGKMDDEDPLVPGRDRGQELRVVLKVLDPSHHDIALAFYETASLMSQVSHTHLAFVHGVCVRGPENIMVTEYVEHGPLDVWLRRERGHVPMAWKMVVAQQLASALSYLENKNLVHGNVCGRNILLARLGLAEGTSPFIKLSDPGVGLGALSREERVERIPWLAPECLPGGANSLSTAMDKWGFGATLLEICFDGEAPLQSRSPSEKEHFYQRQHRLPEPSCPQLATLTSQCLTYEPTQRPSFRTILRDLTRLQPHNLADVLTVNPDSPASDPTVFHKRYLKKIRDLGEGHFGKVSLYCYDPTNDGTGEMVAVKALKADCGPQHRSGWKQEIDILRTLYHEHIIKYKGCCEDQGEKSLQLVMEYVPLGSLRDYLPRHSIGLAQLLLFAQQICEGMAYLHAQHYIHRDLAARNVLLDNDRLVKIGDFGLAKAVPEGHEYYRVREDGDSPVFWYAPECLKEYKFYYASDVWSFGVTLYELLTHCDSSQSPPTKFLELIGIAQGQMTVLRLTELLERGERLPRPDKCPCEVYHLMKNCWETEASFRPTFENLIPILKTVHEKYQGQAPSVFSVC

DC50 (TYK2 [1]) [nM]	DC50 (TYK2 [2]) [nM]	DC50 (TYK2 [3]) [nM]	SMILES
> 100	> 100	> 100	Cc1cc(C)cc(Nc2cc(NCCCCCCCCc3ccc4c(c3)n(C)c(=O)n4C3CCC(=O)NC3=O)c3ncc(C(=O)N[C@@H]4C[C@@H]4F)n3n2)c1 (stereo partly drawn) [Example K400]
> 100	> 100	> 100	Cc1cc(C)cc(Nc2cc(NCCCCCCc3ccc4c(c3)n(C)c(=O)n4C3CCC(=O)NC3=O)c3ncc(C(=O)N[C@@H]4C[C@@H]4F)n3n2)c1 (stereo partly drawn) [Example K401]
> 100	> 100	> 100	Cc1cc(C)cc(Nc2cc(NCCCCc3ccc4c(c3)n(C)c(=O)n4C3CCC(=O)NC3=O)c3ncc(C(=O)N[C@@H]4C[C@@H]4F)n3n2)c1 (stereo partly drawn) [Example K402]
> 100	> 100	> 100	Cn1c(=O)n(C2CCC(=O)NC2=O)c2cccc(C3CN(C4CCN(Cc5ccc(-c6cccc(Nc7ccc8ncc(C(=O)NC9CC9)n8n7)c6)nc5)CC4)C3)c21 (stereo not drawn) [Example K403]
> 100	> 100	> 100	Cn1c(=O)n(C2CCC(=O)NC2=O)c2ccc(C#CC3CCN(Cc4ccc(-c5cccc(Nc6ccc7ncc(C(=O)NC8CC8)n7n6)c5)nc4)CC3)cc21 (stereo not drawn) [Example K404]
> 100	> 100	> 100	Cn1c(=O)n(C2CCC(=O)NC2=O)c2ccc(C3CN(C4CCN(Cc5ccc(-c6cccc(Nc7ccc8ncc(C(=O)NC9CC9)n8n7)c6)nc5)CC4)C3)cc21 (stereo not drawn) [Example K405]
> 100	> 100	> 100	Cn1c(=O)n(C2CCC(=O)NC2=O)c2ccc(N3CCN(Cc4ccc(-c5cccc(Nc6ccc7ncc(C(=O)NC8CC8)n7n6)c5)nc4)CC3)cc21 (stereo not drawn) [Example K406]
> 100	> 100	< 1	CNc1cc(Nc2cccn(-c3ccc(C(=O)N4CCC(OCCCc5ccc6c(c5)n(C)c(=O)n6C5CCC(=O)NC5=O)CC4)cn3)c2=O)nn2c(C(=O)N[C@@H]3C[C@@H]3F)cnc12 (stereo partly drawn) [Example K407]
> 100	> 100	< 1	CNc1cc(Nc2cccn(-c3ccc(C(=O)N4CCC(CN5CCC(c6ccc7c(c6)n(C)c(=O)n7C6CCC(=O)NC6=O)CC5)CC4)cn3)c2=O)nn2c(C(=O)N[C@@H]3C[C@@H]3F)cnc12 (stereo partly drawn) [Example K408]
> 100	> 100	1 to 10	CNc1cc(Nc2cccn(-c3ccc(C(=O)N4CCC5(CCN(c6cnc(C#Cc7ccc8c(c7)n(C)c(=O)n8C7CCC(=O)NC7=O)nc6)C5=O)C4)cn3)c2=O)nn2c(C(=O)N[C@@H]3C[C@@H]3F)cnc12 (stereo partly drawn) [Example K409]
> 100	> 100	< 1	CNc1cc(Nc2cccn(-c3ccc(C(=O)N4CCC(N5CC(c6ccc7c(c6)n(C)c(=O)n7C6CCC(=O)NC6=O)C5)CC4)cn3)c2=O)nn2c(C(=O)N[C@@H]3C[C@@H]3F)cnc12 (stereo partly drawn) [Example K410]
> 100	> 100	> 100	Cn1c(=O)n(C2CCC(=O)NC2=O)c2cccc(C#CC3CCN(Cc4ccc(-c5cccc(Nc6ccc7ncc(C(=O)NC8CC8)n7n6)c5)nc4)CC3)c21 (stereo not drawn) [Example K412]
> 100	> 100	< 1	CNc1cc(Nc2cccc(-c3ccc(CN4CCC(c5ccc(-c6ccc7c(c6)n(C)c(=O)n7C6CCC(=O)NC6=O)cc5)CC4)cn3)c2)nn2c(C(=O)NC3CC3F)cnc12 (stereo not drawn) [Example K413]
> 100	> 100	< 1	CNc1cc(Nc2cccc(-c3ccc(CN4CCC(N5CC(c6cccc7c6n(C)c(=O)n7C6CCC(=O)NC6=O)C5)CC4)cn3)c2)nn2c(C(=O)N[C@@H]3C[C@@H]3F)cnc12 (stereo partly drawn) [Example K414]
> 100	1 to 10	> 100	Cn1c(=O)n(C2CCC(=O)NC2=O)c2ccc(-c3ccc(N4CCN(Cc5ccc(-c6cccc(Nc7ccc8ncc(C(=O)NC9CC9)n8n7)c6)nc5)CC4)cc3)cc21 (stereo not drawn) [Example K415]
> 100	> 100	> 100	CNc1cc(Nc2cccn(-c3ccc(C(=O)N4CCC5(CN(CC#Cc6ccc7c(c6)n(C)c(=O)n7C6CCC(=O)NC6=O)C5)C4)cn3)c2=O)nn2c(C(=O)N[C@@H]3C[C@@H]3F)cnc12 (stereo partly drawn) [Example K416]
> 100	> 100	> 100	CNc1cc(Nc2cccn(-c3ccc(C(=O)N4CCN(CC#Cc5ccc6c(c5)n(C)c(=O)n6C5CCC(=O)NC5=O)CC4)cn3)c2=O)nn2c(C(=O)N[C@@H]3C[C@@H]3F)cnc12 (stereo partly drawn) [Example K417]

DC50 (TYK2 [1]) [nM]	DC50 (TYK2 [2]) [nM]	DC50 (TYK2 [3]) [nM]	SMILES
> 100	> 100	< 1	CNc1cc(Nc2cccn(-c3ccc(C(=O)N4CC5(CC(CN6CCN(c7ccc8c(c7)n(C)c(=O)n8C7CCC(=O)NC7=O)CC6)CO5)C4)cn3)c2=O)nn2c(C(=O)N[C@@H]3C[C@@H]3F)cnc12 (stereo partly drawn) [Example K418]
> 100	> 100	< 1	CNc1cc(Nc2cccn(-c3ccc(C(=O)N4CC(N5CCN(c6ccc7c(c6)n(C)c(=O)n7C6CCC(=O)NC6=O)CC5)C4)cn3)c2=O)nn2c(C(=O)N[C@@H]3C[C@@H]3F)cnc12 (stereo partly drawn) [Example K419]
> 100	> 100	< 1	CNc1cc(Nc2cccn(-c3ccc(C(=O)N4CC5(CN(CCC#Cc6ccc7c(c6)n(C)c(=O)n7C6CCC(=O)NC6=O)CCO5)C4)cn3)c2=O)nn2c(C(=O)N[C@@H]3C[C@@H]3F)cnc12 (stereo partly drawn) [Example K420]
> 100	> 100	1 to 10	CNc1cc(Nc2cccn(-c3ccc(C(=O)N4CCC(OCC#Cc5cccc6c5n(C)c(=O)n6C5CCC(=O)NC5=O)CC4)cn3)c2=O)nn2c(C(=O)N[C@@H]3C[C@@H]3F)cnc12 (stereo partly drawn) [Example K421]
> 100	> 100	< 1	CNc1cc(Nc2cccn(-c3ccc(C(=O)N4CCC(CN5CCCN(c6ccc(-c7ccc8c(c7)n(C)c(=O)n8C7CCC(=O)NC7=O)cn6)CC5)CC4)cn3)c2=O)nn2c(C(=O)N[C@@H]3C[C@@H]3F)cnc12 (stereo partly drawn) [Example K422]
> 100	> 100	1 to 10	CNc1cc(Nc2cccn(-c3ccc(C(=O)N4CCN(C(=O)C5CC(N6CCC(OCCCc7ccc8c(c7)n(C)c(=O)n8C7CCC(=O)NC7=O)CC6)C5)CC4)cn3)c2=O)nn2c(C(=O)N[C@@H]3C[C@@H]3F)cnc12 (stereo partly drawn) [Example K423]
> 100	> 100	> 100	CNc1cc(Nc2cccn(-c3ccc(C(=O)C4CCC(C5CCN(c6ccc7c(c6)n(C)c(=O)n7C6CCC(=O)NC6=O)C5)CN4)cn3)c2=O)nn2c(C(=O)N[C@@H]3C[C@@H]3F)cnc12 (stereo partly drawn) [Example K424]
> 100	> 100	> 100	CNc1cc(Nc2cccn(-c3ccc(C(=O)C4CCC([C@H]5CCN(c6ccc7c(c6)n(C)c(=O)n7C6CCC(=O)NC6=O)C5)CN4)cn3)c2=O)nn2c(C(=O)N[C@@H]3C[C@@H]3F)cnc12 (stereo partly drawn) [Example K425]
> 100	> 100	> 100	CNc1cc(Nc2cccn(-c3ccc(C(=O)N4CCC5(CCCN(CCc6ccc7c(c6)n(C)c(=O)n7C6CCC(=O)NC6=O)C5)C4)cn3)c2=O)nn2c(C(=O)N[C@@H]3C[C@@H]3F)cnc12 (stereo partly drawn) [Example K426]
> 100	> 100	< 1	CNc1cc(Nc2cccn(-c3ccc(C(=O)N(C)C4CCC(N5CCN(c6ccc7c(c6)n(C)c(=O)n7C6CCC(=O)NC6=O)CC5)CC4)cn3)c2=O)nn2c(C(=O)N[C@@H]3C[C@@H]3F)cnc12 (stereo partly drawn) [Example K427]
> 100	> 100	< 1	CNc1cc(Nc2cccn(-c3ccc(C(=O)NC4CCC(CN(C)C5CCN(Cc6ccc7c(c6)n(C)c(=O)n7C6CCC(=O)NC6=O)CC5)CC4)cn3)c2=O)nn2c(C(=O)N[C@@H]3C[C@@H]3F)cnc12 (stereo partly drawn) [Example K428]
> 100	1 to 10	< 1	CNc1cc(Nc2cccn(-c3ccc(C(=O)N4CC(N5CCN(CCc6ccc7c(c6)n(C)c(=O)n7C6CCC(=O)NC6=O)CC5)C4)cn3)c2=O)nn2c(C(=O)N[C@@H]3C[C@@H]3F)cnc12 (stereo partly drawn) [Example K429]
> 100	1 to 10	< 1	CNc1cc(Nc2cccn(-c3ccc(C(=O)N[C@H]4CC[C@H](CN5CCC6(CC5)CN(Cc5cccc7c5n(C)c(=O)n7C5CCC(=O)NC5=O)C6)CC4)cn3)c2=O)nn2c(C(=O)N[C@@H]3C[C@@H]3F)cnc12 (stereo partly drawn) [Example K430]
> 100	> 100	1 to 10	CNc1cc(Nc2cccc(-c3ccc(CN4CCC(C#Cc5cccc6c5n(C)c(=O)n6C5CCC(=O)NC5=O)CC4)cn3)c2)nn2c(C(=O)N[C@@H]3C[C@@H]3F)cnc12 (stereo partly drawn) [Example K431]
> 100	> 100	< 1	CNc1cc(Nc2cccc(-c3ccc(CN4CCN(CC#Cc5cccc6c5n(C)c(=O)n6C5CCC(=O)NC5=O)CC4)cn3)c2)nn2c(C(=O)N[C@@H]3C[C@@H]3F)cnc12 (stereo partly drawn) [Example K432]
> 100	> 100	> 100	Cn1c(=O)n(C2CCC(=O)NC2=O)c2cccc(C#CCN3CCN(Cc4ccc(-c5cccc(Nc6ccc7ncc(C(=O)NC8CC8)n7n6)c5)nc4)CC3)c21 (stereo not drawn) [Example K433]
> 100	> 100	< 1	CNc1cc(Nc2cccc(-c3ccc(CN4CCN(C5CCN(c6ccc7c(c6)n(C)c(=O)n7C6CCC(=O)NC6=O)CC5)CC4)cn3)c2)nn2c(C(=O)N[C@@H]3C[C@@H]3F)cnc12 (stereo partly drawn) [Example K435]
